SMILES strings stand for the structures.

The subject of assay [1] is Kasumi-1 cells. In words: Apoptosis, acridine orange/ethidium bromide, Kasumi-1. The class given is cell-based, human. To be noted: 10 μM, 24 h. The protocol: FIG. 13. YK5 has a higher apoptotic effect than Hsp90 inhibitors in select tumors. (a-d) Cells were treated with the indicated concentrations of inhibitors for the times presented. (a,b) Apoptotic cells were quantified by dual acridine orange/ethidium bromide staining as described in Methods. (c,d) Molecular markers of apoptosis (PARP cleavage) were analyzed in cells treated for 24 h with indicated concentrations of inhibitors (c) or for the indicated times with the indicated concentration of inhibitors (d) by western blotting. (e) MDAMB-468 cells were treated with vehicle, TNFα (20 ng/ml), YK5 (1 μM), pretreated with YK5 for 2 h before TNFα or co-treated, and cells were lysed for western blot analysis (left), or cell death was quantified by analyzing the hypodiploid population upon propidium iodine staining (right). […]
To determine whether cell death by YK5 was attributable to apoptosis, cells were treated with YK5 and effects on morphology, as well as on several effectors and mediators of apoptosis were analyzed (FIG. 13). To quantify the number of cells undergoing apoptosis, cells were stained with acridine orange/ethidium bromide (AO/EB) and analyzed under a fluorescence microscope for the percentage of viable, apoptotic (early and late) and necrotic cells. […]
Apoptosis-Acridine Orange/Ethidium Bromide. […] Percentage of apoptotic cells was determined from 200-300 cells counted in each group.

Assay [2] deals with T1, Human Hsc70 (Homo sapiens, UniProt P11142).
T1 construct: made in house
Kind of assay: Hsc70 ATPase activity. The class given is biochemical. The note with it: 100 μM, Hsc70 with co-chaperones, 30° C. The protocol:
FIG. 6. YK5 inhibits core biochemical functions of Hsp70s and disrupts the Hsp90/Hsp70 interaction. a) Refolding of denatured luciferase by Hsc70 and DJA2 at 30° C. was measured for the indicated times in the presence of YK5 (100 μM) or vehicle (left), or at 60 min in the presence of indicated concentrations of YK5 (right). b) Hsc70 ATPase rates were measured for reactions at 30° C. with the indicated combinations of Hsc70 and co-chaperones in the presence of vehicle (DMSO) or YK5 (100 μM). ADP production was monitored by thin layer chromatography separation of radiolabeled ADP from ATP and phosphorimaging analysis (lower). […] Proteins isolated with anti-Hsp90 and Hsp70s antibodies (IP: Hsp90 or Hsp70), or present in the cell extract (Lysate) were analyzed by WB. […] Proteins were applied to a native gel and analyzed by immunoblotting. […]
Hsc70 ATPase Activity and Luciferase Refolding. Human Hsc70, DJA1/DNAJA1, DJA2/DNAJA2 and Hsp110/Hsp105/HSPH1 were purified and analyzed. […] Samples at time points were terminated with 37.5 mM EDTA and analyzed by thin layer chromatography on polyethylene-imine cellulose (Mallinckrodt Baker) developed in 0.5 M LiCl and 0.5 M formic acid. The ADP produced was determined by image phosphor quantitation and the linear enzymatic rates (Vmax) were calculated by regression analysis. […]

T1 sequence (P11142 whole entry): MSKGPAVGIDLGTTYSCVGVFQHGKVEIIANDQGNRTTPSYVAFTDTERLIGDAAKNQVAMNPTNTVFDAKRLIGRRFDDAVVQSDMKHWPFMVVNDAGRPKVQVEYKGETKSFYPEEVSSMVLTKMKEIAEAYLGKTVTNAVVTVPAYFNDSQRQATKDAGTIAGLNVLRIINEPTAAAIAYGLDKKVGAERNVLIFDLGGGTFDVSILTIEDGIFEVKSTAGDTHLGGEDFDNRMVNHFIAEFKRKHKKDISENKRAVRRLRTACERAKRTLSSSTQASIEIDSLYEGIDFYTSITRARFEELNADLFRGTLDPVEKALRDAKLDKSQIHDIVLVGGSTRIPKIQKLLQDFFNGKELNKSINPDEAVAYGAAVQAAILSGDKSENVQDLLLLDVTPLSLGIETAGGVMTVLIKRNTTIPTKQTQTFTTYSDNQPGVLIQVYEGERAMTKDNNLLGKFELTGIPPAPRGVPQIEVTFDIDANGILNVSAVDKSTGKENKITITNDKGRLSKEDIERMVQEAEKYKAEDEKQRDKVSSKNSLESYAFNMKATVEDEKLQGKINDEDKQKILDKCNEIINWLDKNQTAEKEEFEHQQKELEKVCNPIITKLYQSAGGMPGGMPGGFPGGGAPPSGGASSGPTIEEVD

As to `C=CC(=O)Nc1cc(N)nc(Sc2c(OC)nc(N3CCN(C)CC3)nc2OC)n1` [YK5, N-(6-amino-2-(4,6-dimethoxy-2-(4-methylpiperazin-1-yl)pyrimidin-5-ylthio)pyrimidin-4-yl)acrylamide], in assay [1], the cells undergoing apoptosis came out at 70%. For the same compound, in assay [2], the “stimulated ATPase rate of Hsc70” value is recorded as “partially inhibited the stimulated ATPase rate of Hsc70”.

(Values after US9567318B2, “Substituted pyrimidine compounds and uses thereof” (Memorial Sloan-Kettering Cancer Center, priority 2009, dated 2017).)
